One assay addresses PRC2. On the set-up: method as in PMID 24304166. Conditions: activated versus basal PRC2; cited from earlier work.
Assay [1] concerns the target T1, HsPRC2_4 (Homo sapiens, UniProt Q15910).
T1 construct: intact HsPRC2_4 (full-length EZH2 (EZH2_FL) and SUZ12 co-migrate on SDS-PAGE); made in house; host or cells: Sf9 insect cells (baculovirus co-infection)
In words: Inhibition of basal and activated states of HsPRC2_4. Type of assay: biochemical. The note with it: for Ki: SAM above Km, mean of two independent experiments.

Assay [2] deals with T1, HsPRC2_4. Description: Radioactive filter-binding histone methyltransferase assay, intact HsPRC2_4, oligonucleosome substrate. The assay is classed as biochemical. From the text: (§1) (Prism, Graphpad Software Inc.).
A further assay concerns the target T2, HsPRC2_4 (Y641N) (Homo sapiens, UniProt Q15910, Y641N).
T2 construct: intact HsPRC2_4 (full-length EZH2 (EZH2_FL) and SUZ12 co-migrate on SDS-PAGE); made in house; host or cells: Sf9 insect cells (baculovirus co-infection)
In words: Radioactive filter-binding histone methyltransferase assay, HsPRC2_4 (Y641N), oligonucleosome substrate. Type of assay: biochemical.
Excerpt: as §1

Another assay concerns the target T3, HsPRC2_4 (Y641N/Y661D) (Homo sapiens, UniProt Q15910, Y641N/Y661D).
T3 construct: intact HsPRC2_4 (full-length EZH2 (EZH2_FL) and SUZ12 co-migrate on SDS-PAGE); made in house; host or cells: Sf9 insect cells (baculovirus co-infection)
In words: Radioactive filter-binding histone methyltransferase assay, HsPRC2_4 (Y641N/Y661D), oligonucleosome substrate. The assay is classed as biochemical.
Excerpt: as §1

The target of a further assay is T4, HsPRC2_4 (Y111L) (Homo sapiens, UniProt Q15910, Y111L).
T4 construct: intact HsPRC2_4 (full-length EZH2 (EZH2_FL) and SUZ12 co-migrate on SDS-PAGE); made in house; host or cells: Sf9 insect cells (baculovirus co-infection)
Description: Radioactive filter-binding histone methyltransferase assay, HsPRC2_4 (Y111L), oligonucleosome substrate. Type of assay: biochemical.
Excerpt: as §1

The next assay has as its target Hs/AcPRC2_X (Anolis carolinensis, UniProt G1KPH4, DEL368-454, form not given). The note with it: rH3 substrate; n=2, mean±s.d.
Where [3] appears, read: oligonucleosome substrate, n=2, mean±s.d.

T1 sequence (Q15910 whole entry): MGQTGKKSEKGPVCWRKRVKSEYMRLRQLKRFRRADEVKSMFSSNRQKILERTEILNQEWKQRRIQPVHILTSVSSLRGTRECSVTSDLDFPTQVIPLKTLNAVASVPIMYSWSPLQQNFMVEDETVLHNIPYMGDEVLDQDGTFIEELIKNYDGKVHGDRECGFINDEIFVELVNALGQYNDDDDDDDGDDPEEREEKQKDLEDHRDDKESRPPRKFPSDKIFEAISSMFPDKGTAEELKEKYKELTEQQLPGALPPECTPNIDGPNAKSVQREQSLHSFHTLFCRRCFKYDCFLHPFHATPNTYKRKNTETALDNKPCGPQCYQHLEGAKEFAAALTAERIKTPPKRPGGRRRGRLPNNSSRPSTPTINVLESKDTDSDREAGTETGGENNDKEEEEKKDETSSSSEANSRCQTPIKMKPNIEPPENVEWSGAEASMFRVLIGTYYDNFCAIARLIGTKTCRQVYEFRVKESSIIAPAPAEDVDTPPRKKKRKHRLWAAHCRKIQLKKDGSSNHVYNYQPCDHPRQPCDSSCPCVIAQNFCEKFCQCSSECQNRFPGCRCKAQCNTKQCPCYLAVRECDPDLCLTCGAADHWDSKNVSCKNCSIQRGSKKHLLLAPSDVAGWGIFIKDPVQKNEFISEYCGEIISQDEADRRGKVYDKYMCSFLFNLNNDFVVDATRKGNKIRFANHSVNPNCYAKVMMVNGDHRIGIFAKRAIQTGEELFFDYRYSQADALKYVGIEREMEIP
T1 sequence (O75530 whole entry partner): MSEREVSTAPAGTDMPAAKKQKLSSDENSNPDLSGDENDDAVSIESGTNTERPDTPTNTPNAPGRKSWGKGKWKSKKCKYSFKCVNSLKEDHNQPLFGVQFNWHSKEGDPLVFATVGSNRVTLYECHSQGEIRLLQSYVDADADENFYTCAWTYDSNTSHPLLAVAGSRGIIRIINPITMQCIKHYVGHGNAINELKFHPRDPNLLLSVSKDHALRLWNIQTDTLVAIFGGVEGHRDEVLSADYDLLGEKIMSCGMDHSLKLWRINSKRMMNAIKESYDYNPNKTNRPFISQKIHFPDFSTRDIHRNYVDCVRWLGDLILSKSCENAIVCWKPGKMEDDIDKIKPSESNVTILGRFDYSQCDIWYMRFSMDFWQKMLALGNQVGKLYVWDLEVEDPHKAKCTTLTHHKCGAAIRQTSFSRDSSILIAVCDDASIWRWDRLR
T1 sequence (Q15022 whole entry partner): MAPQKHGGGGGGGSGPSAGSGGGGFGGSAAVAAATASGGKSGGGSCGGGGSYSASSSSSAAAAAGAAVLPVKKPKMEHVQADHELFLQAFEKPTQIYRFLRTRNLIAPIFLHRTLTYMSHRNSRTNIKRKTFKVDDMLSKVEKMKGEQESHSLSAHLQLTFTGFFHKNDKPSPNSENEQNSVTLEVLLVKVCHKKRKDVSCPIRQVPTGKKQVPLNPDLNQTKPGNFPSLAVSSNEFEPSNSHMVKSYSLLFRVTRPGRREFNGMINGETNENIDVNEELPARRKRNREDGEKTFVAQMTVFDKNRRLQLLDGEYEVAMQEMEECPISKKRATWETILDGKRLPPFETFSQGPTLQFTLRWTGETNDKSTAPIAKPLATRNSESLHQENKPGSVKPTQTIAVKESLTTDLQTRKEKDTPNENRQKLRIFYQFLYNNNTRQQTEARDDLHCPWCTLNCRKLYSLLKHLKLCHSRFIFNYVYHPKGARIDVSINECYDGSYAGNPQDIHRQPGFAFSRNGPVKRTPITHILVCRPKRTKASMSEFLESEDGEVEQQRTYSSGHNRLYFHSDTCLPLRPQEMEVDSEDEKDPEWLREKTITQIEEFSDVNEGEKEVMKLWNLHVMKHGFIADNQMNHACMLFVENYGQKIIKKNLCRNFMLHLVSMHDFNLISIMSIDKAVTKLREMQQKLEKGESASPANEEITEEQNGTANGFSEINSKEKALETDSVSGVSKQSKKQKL
T1 sequence (Q09028 whole entry partner): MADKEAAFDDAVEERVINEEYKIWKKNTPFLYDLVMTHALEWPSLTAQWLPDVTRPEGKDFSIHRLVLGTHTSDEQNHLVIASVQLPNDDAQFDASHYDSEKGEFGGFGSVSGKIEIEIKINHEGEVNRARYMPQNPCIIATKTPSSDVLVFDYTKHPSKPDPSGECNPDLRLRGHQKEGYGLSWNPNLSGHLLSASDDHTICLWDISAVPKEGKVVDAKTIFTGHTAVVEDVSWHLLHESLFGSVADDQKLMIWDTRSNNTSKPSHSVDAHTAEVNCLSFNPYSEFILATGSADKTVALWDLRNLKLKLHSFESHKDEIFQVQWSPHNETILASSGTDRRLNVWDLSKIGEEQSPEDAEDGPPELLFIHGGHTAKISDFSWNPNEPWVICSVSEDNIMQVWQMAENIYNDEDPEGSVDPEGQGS
T4 sequence (Q15910 whole entry Y111L): as the sequence (Q15910 whole entry) above, with Y111L counted along it
T4 sequence (O75530 whole entry partner): as the sequence (O75530 whole entry partner) above
T4 sequence (Q15022 whole entry partner): as the sequence (Q15022 whole entry partner) above
T4 sequence (Q09028 whole entry partner): as the sequence (Q09028 whole entry partner) above
T2 sequence (Q15910 whole entry Y641N): as the sequence (Q15910 whole entry) above, with Y641N counted along it
T2 sequence (O75530 whole entry partner): as the sequence (O75530 whole entry partner) above
T2 sequence (Q15022 whole entry partner): as the sequence (Q15022 whole entry partner) above
T2 sequence (Q09028 whole entry partner): as the sequence (Q09028 whole entry partner) above
T3 sequence (Q15910 whole entry Y641N/Y661D): as the sequence (Q15910 whole entry) above, with Y641N, Y661D counted along it
T3 sequence (O75530 whole entry partner): as the sequence (O75530 whole entry partner) above
T3 sequence (Q15022 whole entry partner): as the sequence (Q15022 whole entry partner) above
T3 sequence (Q09028 whole entry partner): as the sequence (Q09028 whole entry partner) above
Sequence of Hs/AcPRC2_X (G1KPH4 entry or part of it DEL368-454, form open): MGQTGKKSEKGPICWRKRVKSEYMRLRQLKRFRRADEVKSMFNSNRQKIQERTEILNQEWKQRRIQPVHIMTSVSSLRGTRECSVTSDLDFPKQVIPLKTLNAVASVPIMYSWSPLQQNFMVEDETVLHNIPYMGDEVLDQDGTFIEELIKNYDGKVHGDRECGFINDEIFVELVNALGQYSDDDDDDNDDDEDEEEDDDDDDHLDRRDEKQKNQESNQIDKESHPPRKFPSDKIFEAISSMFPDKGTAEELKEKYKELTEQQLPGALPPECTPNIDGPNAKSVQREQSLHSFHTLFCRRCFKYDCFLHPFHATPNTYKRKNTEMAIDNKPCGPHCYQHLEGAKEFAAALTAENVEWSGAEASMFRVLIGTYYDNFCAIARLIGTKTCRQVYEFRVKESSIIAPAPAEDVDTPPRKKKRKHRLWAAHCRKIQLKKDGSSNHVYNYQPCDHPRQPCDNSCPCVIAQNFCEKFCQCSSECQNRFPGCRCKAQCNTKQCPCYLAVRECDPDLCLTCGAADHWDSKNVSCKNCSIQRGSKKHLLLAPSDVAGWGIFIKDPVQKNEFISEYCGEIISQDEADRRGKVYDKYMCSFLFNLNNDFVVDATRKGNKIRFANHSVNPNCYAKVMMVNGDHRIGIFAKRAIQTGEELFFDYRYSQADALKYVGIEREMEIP
Sequence of Hs/AcPRC2_X (Q15022 545-726 S583D, form open, further chain): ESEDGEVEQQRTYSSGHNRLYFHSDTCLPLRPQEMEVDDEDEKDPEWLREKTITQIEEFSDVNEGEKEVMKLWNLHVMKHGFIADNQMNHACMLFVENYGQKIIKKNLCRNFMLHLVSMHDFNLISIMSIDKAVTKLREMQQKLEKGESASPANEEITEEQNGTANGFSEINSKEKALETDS
Sequence of Hs/AcPRC2_X (O75530 81-441, stated change not applied, form open, further chain): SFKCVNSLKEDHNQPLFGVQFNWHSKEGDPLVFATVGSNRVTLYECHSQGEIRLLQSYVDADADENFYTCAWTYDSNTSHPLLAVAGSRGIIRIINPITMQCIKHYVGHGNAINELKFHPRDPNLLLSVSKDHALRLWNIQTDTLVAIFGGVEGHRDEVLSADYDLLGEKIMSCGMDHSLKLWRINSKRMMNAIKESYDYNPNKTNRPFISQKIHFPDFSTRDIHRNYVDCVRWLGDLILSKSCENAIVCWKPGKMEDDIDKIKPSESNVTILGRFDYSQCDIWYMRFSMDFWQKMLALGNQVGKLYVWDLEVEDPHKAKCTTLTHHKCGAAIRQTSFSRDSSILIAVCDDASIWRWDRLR
Description for Hs/AcPRC2_X: Recombinant PRC2 was combined with methyl-acceptor substrate in 100 mM Tris pH 8.5, 0.01% Tween-20 and 4 mM DTT. In all, 44 μl was added to a microtiter plate containing 1 μl of 100% DMSO or test compound. SAM was prepared by combining ^3H-labelled SAM with unlabelled SAM in assay buffer, such that the specific activity was 0.4 μCi μl^−1. The reaction was initiated by adding 5 μl of SAM to the microtiter plate. Following incubation at room temperature, the reaction was stopped with the addition of 100 μl of 20% TCA. The tritiated-methyl-acceptor product was captured using a 96-well filter plate (MSIPN4B50, Millipore) and washed five times with phosphate-buffered saline buffer. Scintillation fluid (50 μl) was added to the dried filter plate and counted in a liquid scintillation counter. In assays where several different constructs were compared, we first established linearity of ^3H-labelled SAM incorporation over a 120-min period and then 30 min reactions using 7.5 nM of PRC2 and its variants with 3 μM of SAM and specific concentrations of various substrates, as described below, were performed in duplicates. […] The total counts for three independent experiments were plotted as mean±standard deviation. […] Ki values were determined by fitting background corrected counts to the Morrison equation for competitive tight binding inhibition using SAM Km values for each individual enzyme[49] […]

Regarding `CC[C@H](C)n1cc(C)c2c(C(=O)NCc3c(C)cc(C)[nH]c3=O)cc(-c3ccc(N4CCNCC4)nc3)cc21` [GSK126], at PRC2, the “Ki on activation of PRC2 by H3K27Me3 mark” value was “lower” and the “Residence time on activation of PRC2 by H3K27Me3 mark” value is listed as “increased”.

`C[S+](CC[C@H](N)C(=O)[O-])C[C@H]1O[C@@H](n2cnc3c(N)ncnc32)[C@H](O)[C@@H]1O` (stereo partly drawn) [SAM, S-adenosyl-L-methionine, reference compound]: the Km – broadly, the substrate concentration at which the rate is half of its maximum – at HsPRC2_4 [1] (intact HsPRC2_4 complex, read-out: Km, SAM) was 1.5 µM.

Regarding `CCc1cc(C)[nH]c(=O)c1CN1CCc2c(Cl)cc(OC3CCN(C(=O)C(C)O)CC3)c(Cl)c2C1=O` (stereo not drawn) [inhibitor 1], the “Mode of inhibition (IC50 as a function of (SAM)/Km)” value on HsPRC2_4 [2] (HsPRC2_4, linear relationship of IC50 with (SAM)/Km, two independent experiments) is “SAM-competitive”. Besides, the Ki (as a rule, the equilibrium dissociation constant of an inhibitor or competing ligand from its target) is 1.63 ± 0.13 nM at HsPRC2_4 [2] (setting [3]); 4.56 ± 0.16 nM on HsPRC2_4 (Y641N) (setting [3]); 204 ± 16 nM at HsPRC2_4 (Y641N/Y661D) (setting [3]); 116.4 ± 0.7 nM on HsPRC2_4 (Y111L) (setting [3]); 0.65 nM at HsPRC2_4 [1] (in the presence of the activator peptide H3K27Me3 (21-44)); 0.89 nM on HsPRC2_4 [1] (no activator). The molecule further yielded a Ki on Hs/AcPRC2_X of 3.1 ± 0.11 nM. Also, at HsPRC2_4 (Y641N) (Y641N HsPRC2_4), the Sensitivity to inhibitor result is given as “sensitive”. Also, the Biochemical inhibition result on HsPRC2_4 (Y641N/Y661D) (Y641N/Y661D HsPRC2_4) and on HsPRC2_4 (Y111L) (Y111L HsPRC2_4) was “refractory” in each case. For the same molecule, the “Inhibition profile, basal versus stimulated state” value on HsPRC2_4 [1] (basal and stimulated states of HsPRC2_4) is recorded as “almost identical”.
